In US20060193893A1, “Medical devices” (ChemGenex Pharmaceuticals, Inc., priority 2005, published 2006):
Marks after values point to notes of the source that are not given here.

Tested on: chorioallantoic membrane (CAM)
Assay: Effects of homoharringtonine in the early chicken chorioallantoic membrane (CAM) assay
Assay type: in vivo
Conditions: for CAM area, Day 4: Day 4 (start of treatment, matched groups); for CAM area, Day 4 / CAM increase (fold) / Artery length / CAM area, Day 5 / Relative artery length / Relative total vessel length / Relative vein length / Total vessel length / Vein length: mean ± SEM, n = 6; for CAM increase (fold): Day 4 to Day 5; for Artery length / CAM area, Day 5 / Relative artery length / Relative total vessel length / Relative vein length / Total vessel length / Vein length: Day 5
Procedure: Fertilized chicken eggs (HiChick Breeding Co, Kapunda, South Australia) were incubated for three days at 38° C. On Day 3 the embryos were cracked out of the egg and into a cup made of plastic piping, with plastic film stretched over the top to form a hammock for the egg to be suspended in. Two ml of DMEM containing penicillin and streptomycin was added to each cup prior to the egg being added. A Petri dish on the top maintained sterility. Incubation continued in a humidified 37° C. incubator.
On Day 4 the chorioallantoic membrane (CAM) begins to grow, and pictures were taken of each embryo at ×5 to measure the CAM area using image analysis software (Video Pro 32, Leading Edge Pty Ltd, South Australia). Embryos were then grouped according to their CAM area, with a control embryo in each for comparison. There were four matched embryos, treated with 6.25, 12.5 and 25 ng of homoharringtonine. Grouping is critical as in these early developmental stages changes in the CAM growth are dramatic. Relatively small differences in size on Day 4 translate to large differences in the CAM on Day 5, making it impossible to compare treatments. Substances were applied in methylcellulose discs, which were first dried under vacuum overnight. The methylcellulose discs were applied to the top of the CAM, and at the beginning of treatment were at least three to four-fold bigger than the CAM area, meaning treatment covered the entire CAM surface.
On Day 5 skim milk with contrast medium was injected into the CAM. Pictures were then taken at various levels of magnification up to ×63. Quantitative measurements were made from ×5 pictures. CAM area, and vein and artery lengths were measured using image analysis (Video Pro 32, Leading Edge Pty Ltd, South Australia). Relative vessel lengths were then calculated as the total length/CAM area. Statistical analysis was made using SigmaStat and OneWay ANOVA with p<0.05 as the level of significance.
FIG. 3A illustrates the normal organization of the CAM is uniform, with the major vein draining towards the left, and the artery branches coming over the edge of the top and bottom of the CAM. FIGS. 3B and 3C schematically illustrate tracing of the vein and artery branches, as performed for the measurement of vessel lengths.
The angiogenic inhibitor, homoharringtonine, was obtained from ChemGenex Therapeutics, Inc. (Menlo Park, Calif.) and was made to the appropriate concentration in sterile water. […] Homoharringtonine was applied at 6.25, 12.5 and 25 ng (11.3, 22.5 and 45 nM) doses, and compared with water treated controls. Homoharringtonine reduced the growth of the CAM to 42% of the control in the 25 ng treated CAM. […] The vein, artery and total vessel lengths were reduced to 15%, 18% and 17% of control, respectively.

Compound: COC(=O)C[C@](O)(CCCC(C)(C)O)C(=O)O[C@@H]1C(OC)=C[C@]23CCCN2CCc2cc4c(cc2[C@H]13)OCO4 [Homoharringtonine, cephalotaxine, 4-methyl-2-hydroxy-2-(4-hydroxy-4-methylpentyl) butanediocate ester]
- CAM area, Day 4 (6.25 ng in methylcellulose disc): 6.5 ± 1.6 pixels
- CAM increase (fold) (6.25 ng): 7.0 ± 0.4 ^a fold
- Artery length (6.25 ng): 1573 ± 516^ pixels
- CAM area, Day 5 (6.25 ng): 45.3 ± 11.6 pixels
- Relative artery length (6.25 ng): 31.6 ± 4.5 ^a b length/CAM area
- Relative total vessel length (6.25 ng): 63.2 ± 7.7 ^b length/CAM area
- Relative vein length (6.25 ng): 31.6 ± 4.6 ^b length/CAM area
- Total vessel length (6.25 ng): 3055 ± 1003 pixels
- Vein length (6.25 ng): 1482 ± 499^ pixels
- CAM area, Day 4 (12.5 ng in methylcellulose disc): 6.3 ± 1.6^ pixels
- CAM increase (fold) (12.5 ng): 9.0 ± 1.0 ^b fold
- Artery length (12.5 ng): 1787 ± 544 ^ pixels
- CAM area, Day 5 (12.5 ng): 53.0 ± 11.6^ pixels
- Relative total vessel length (12.5 ng): 60.1 ± 7.5 ^b length/CAM area
- Relative vein length (12.5 ng): 28.3 ± 4.4 ^b length/CAM area
- Total vessel length (12.5 ng): 3351 ± 953 ^ pixels
- Vein length (12.5 ng): 1564 ± 427 ^ pixels
- embryo survival at 25 ng (25 ng dose): killed one of the smaller embryos
- artery length, % of control (25 ng group vs water control): 18%
- total vessel length, % of control (25 ng group vs water control): 17%
- vein length, % of control (25 ng group vs water control): 15%
- CAM area, Day 4 (25 ng in methylcellulose disc): 6.2 ± 1.5 pixels
- growth of the CAM, % of the control (25 ng treated CAM vs water control): 42%
- CAM increase (fold) (25 ng): 4.3 ± 0.7 ^a fold
- Artery length (25 ng): 551 ± 265 ^a pixels
- CAM area, Day 5 (25 ng): 30.2 ± 9.9 ^ pixels
- Relative artery length (25 ng): 13.0 ± 4.3 ^a length/CAM area
- Relative total vessel length (25 ng): 24.3 ± 6.7 ^a length/CAM area
- Relative vein length (25 ng): 11.3 ± 3.5 ^a length/CAM area
- Total vessel length (25 ng): 909 ± 396 ^a pixels
- Vein length (25 ng): 359 ± 143 ^a pixels
- embryo survival at the initial doses (initial doses, above 25 ng, dose then reduced): resulted in the death of the embryos

Compound: CC(=O)O[C@H]1C(=O)[C@@]2(C)[C@H]([C@H](OC(=O)c3ccccc3)[C@]3(O)C[C@H](OC(=O)[C@H](O)[C@@H](NC(=O)c4ccccc4)c4ccccc4)C(C)=C1C3(C)C)[C@]1(OC(C)=O)CO[C@@H]1C[C@@H]2O [taxol]
- qualitative changes at higher magnification (FIG. 5) (homoharringtonine 25 ng, taxol dose not given, vs water control): diffuse leakage of the red blood cells outside the vessels and the skeletons of larger vessels with no remaining blood flow
